We go through 8 molecules from US7122524B2, “Tripeptides and tripeptide derivatives for the treatment of postlesional disease of the nervous system” (Neurotell AG, priority 2002, dated 2006).

Data set [1] in a line: Metabolic stability in rat hepatocytes. The following applies: male, Wistar, 10^6 cells/ml, analysed during 24 h, read-out: T½ (converted). In kind it is in vitro ADME. From the text: Hepatocytes from adult male Wistar rats (IFFA Credo, L'Arbresle, France) were isolated by an in situ liver perfusion using collagenase (purchased from Sigma (St. Louis, Mo., U.S.A), according to a procedure described by Seglen (Preparation of isolated rat liver cell, Methods Cell Biol. 13, 29–83, 1976) and modified by Williams et al. (Rat hepatocyte primary culture. III. Improved dissociation and attachment techniques and the enhancement of survival by culture medium, in vitro 13: 809–817, 1977). After estimation of cell viability by the peripheral refractoriness of intact cells in phase contrast microscopy and the trypan blue test, freshly isolated hepatocytes were washed in basal William's medium E (WME) supplemented with 10% (v/v) fetal calf serum, 70 μM cortisol, 2 mM L-glutamine, 10 mM HEPES buffer, and 4 mM NaOH. They were then plated at a density of 0,5×10^6 cells per 50 mm plastic cell culture dishes in the medium described previously for cell attachment for 6 hours at 37° C. Subsequently, hepatocytes were washed three times in serum- and cholesterol-free medium (SF-WME) containing 4 g/l bovine albumin fraction V (Sigma) as transporter for 7.8 μM of a mixture of free fatty acids (Cheesebeuf M and Padieu P, expression of major liver metabolic function in long-term serum-free rat liver epithelial cell lines. In vitro 20: 780–795, 1984), and then were transferred to the SF-WME supplemented with the various tripeptides of formula (I). For each group of experiments, hepatocytes from three or four livers were used.
Significances are calculated using Student's t-test. Values are expressed as mean±SD.
• Method: (Hepatocytes in suspension) • Plasma sample: Precipitation with trichloracetic acid. • Centrifugation and aliquot of supernatant to HPLC. • […] column: Nucleosil C18 (250×4,6 mm). • Buffer TEAP 0,1%/CH3CN, 1 ml/min • Readings at 210 nm. […]
Each substance of each concentration will be analysed 10 times during 24 h (1 h, 2 h, 4 h, 6 h, 8 h, 10 h, 12 h, 16 h, 20 h, 24 h).

For a further data set, the system named is cholinergic nerve ends. In words: Sprouting assay (dendrite length after septum lesion). The data set is classed as in vivo, rat. The following applies: rats, septum of hippocampus destroyed; 20 mg/per kg bodyweight per day over at least 15 days. As to the method: The sprouting of nerve cells is determined by the length of the dendrites. According to the present invention, the influence of the substances used according to the present invention on the sprouting is studied in an in vivo assay.
The septum of the hippocampus of 10 rats was destroyed (see Hagg et al; Exp. Neurol., 101, 303–312). 21 days after the impairment of the hippocampus was unambiguous, as confirmed by a behavioural test, the rats were divided into two groups of 5 rats each. 20 mg/per kg bodyweight per day of the substance used according to the present invention (GFPNH2) was administered to the test group of 5 rats over at least 15 days.
After administration, the animals were killed, and the cholinergic nerve ends were observed by a CAT (choline-acetyl-transferase) immunofluorescence assay under a fluorescence microscope. The length of the dendrites was measured thereby.

For data set [2] the following is noted: literature value; cited from earlier work.
[3] abbreviates: freshly isolated rat hepatocytes (in suspension).

Converted amounts (≈) assume the structure as drawn. Where a name gives a salt, the structure may show the parent alone. Read-outs that look alike come from different tables or passages of the source. Residues, ends and D or L forms follow the SMILES beside them.

Turning to `CC[C@H](C)[C@H](NC(=O)CN(CC)CC)C(=O)N1CCC[C@H]1C(N)=O` [N,N-Diethyl-Gly-Ile-ProNH2], under “PAMPA”, the “predicted absorption after peroral application (PAMPA classification)” value (“predicted absorption” for short) was “medium to highly absorbed”. The half-life in data set [1] (freshly isolated rat hepatocytes) is 2.8 h. Consider `CC[C@H](C)[C@H](NC(C)C)C(=O)N[C@H](C(=O)N1CCC[C@H]1C(N)=O)[C@@H](C)CC` [N-Isopropyl-Ile-Ile-ProNH2], for which, for the setting “PAMPA”, the “predicted absorption” value is listed as “medium to highly absorbed”. With `CCNC(=O)[C@@H]1CCCN1C(=O)[C@H](Cc1ccccc1)NC(=O)[C@H]([C@@H](C)CC)N(CC)CC` [N,N-Diethyl-Ile-Phe-ProNHEt, N,N-diethyl-isoleucyl-phenylalanyl-L-proline ethylamide], the solubility in “physchem” was determined as 1 mg/mL (≈ 2180 µM). Besides, the “predicted absorption” value (PAMPA) was “medium to highly absorbed”. Besides, in data set [1] (setting [3]), the half-life is 4.5 h.

Consider `NCC(=O)N[C@@H](Cc1ccccc1)C(=O)N1CCC[C@H]1C(N)=O` [HCl-Gly-Phe-ProNH2, glycyl-L-phenylalanyl-L-prolineamide] (H-Gly-Phe-Pro-NH2), for which the “predicted absorption” value (PAMPA) is on record as “weakly absorbed”. The “increase of the dendrite length” value in the data set with cholinergic nerve ends is 8 to 10 μm. Molecule `CC[C@H](C)[C@H](NC(=O)[C@H]([C@@H](C)CC)N(CC)CC)C(=O)N1CCC[C@H]1C(N)=O` [N,N-Diethyl-Ile-Ile-ProNH2, N,N-diethyl-isoleucyl-isoleucyl-prolineamide] yielded a solubility in the data set “physchem” of 1 mg/mL (≈ 2520 µM). In addition, for the setting “PAMPA”, the “predicted absorption” value is reported as “medium to highly absorbed”. In addition, in data set [1] (setting [3]), the half-life is 3.4 h.

Consider thyreoliberin [TRH, reference compound], for which the “predicted absorption” value (classification by flux rate) is “weakly absorbed”. Regarding `O=c1ccc2ccccc2o1` [Coumarin], in data set [2], the “flux rate published by Kansy et al.” value is on record as 66%.

As for `C[C@]12CCC(=O)C=C1CC[C@@H]1[C@@H]2[C@@H](O)C[C@@]2(C)[C@H]1CC[C@]2(O)C(=O)CO` [Hydrocortisone], the “flux rate published by Kansy et al.” value in data set [2] is 52%.

A word on the solubility: it is how much of the substance goes into solution per volume. Read a low solubility as little dissolved substance.
